≈ marks a conversion by molar mass, not a printed value.
Assay: physchem

Work on `CC(C)Cc1ccc(C(C)C(=O)O)cc1` (stereo not shown) [Ibuprofen] yielded a solubility of 73 µg/mL (≈ 354 µM).

Reference: patent US7951399B2, “Process for activation of drugs in a vibrational mill” (Eurand Pharmaceuticals Ltd., priority 2001, dated 2011)
